Tests used:
P-gp [1] = biological target: T1, P-gp (Homo sapiens, UniProt P08183); conditions: digoxin 10 µM alone
Experimental: (§1) Caco-2 cells were seeded in transwell poly carbonate inserts (6 well, 0.4 µm pore size, Corning co-star Co.) at 70,000 cells per insert on the day of seeding. Cells were cultured in DMEM supplemented with 10 % fetal bovine serum and 1 % non essential amino acids (Gibco). All the cells were incubated at 37 °C in a humidified atmosphere with 5 % CO2 and 95 % air. For uptake studies, Caco-2 cells were seeded on to 0.7 cm^2 dishes at a density of approximately 70,000 cells per dish and used for experiment.

P-gp [2] = biological target: T1, P-gp; assay: in vitro; conditions: Caco-2
Experimental: as §1

Caco-2 = conditions: ref Collett et al. 2004; cited from earlier work
P-gp [3] = assay: In vivo P-gp inhibition study: plasma and brain pharmacokinetics of i.v. quinidine in mice with and without inhibitor pre-treatment; conditions: for Effect of pre-treatment on plasma profile of quinidine: quinidine 5 mg/kg i.v., inhibitor i.v. 0.5 h pre-treatment; for AUC(0-inf) / AUC(0-t) / Cmax / Tmax: male, C57, mouse, iv, 5 mg/kg
Experimental: Male C57 mice weighing 30–35 g and of 6–8 weeks old were taken and the animal experiments were conducted in the animal research facility of Syngene International limited, Bengaluru, India. […] Animal study protocols were approved by the Syngene International organisational animal ethics committee, Bengaluru, India.
Dose volumes (5 mL/kg) of drugs were administered by i.v. route via tail vein injection. […]
Mice were divided into three groups (n = 3–4). […] Blood and brain samples were collected at 0.5, 1, 3, 5 and 7 h post dose of probe substrate. Blood was collected from mice under mild anaesthesia via tail vein and collected blood was centrifuged at 5000 rpm to separate plasma.
After sacrificing the mice at different time points, brain was collected homogenised at 5× concentration with phosphate buffered saline using Bullet blender. Fifty µL of brain homogenate or plasma and 200 µL of internal standard (IS) in vehicle (70 % acetonitrile and 30 % water) were mixed in a 96-well hydrophilic solvinert plate. The acetonitrile mixtures were vortexed and centrifuged at 10,000 rpm for 10 min. Supernatant was collected in a 96 well plate and analysed by liquid chromatography with mass spectroscopy (LC-MS, QTRAP ABSCIEX API 4000).
Analysis was carried out using 4000 QTRAP LC/MS/MS system with triple Quadruple mass spectrometer (AB SCIEX) equipped with an electron spray ionisation (ESI). The mass spectrometer was operated in the ESI positive ion mode and detection of ions were performed in the multiple reaction monitoring (MRM) mode.

P-gp [4] = system: P-gp; design: method as in O’Brien et al. 2013; conditions: P-gp inhibition using cyclosporin and verapamil; ref O’Brien et al. 2013; cited from earlier work
P-gp [5] = system: P-gp; design: method as in Van Asperen et al. 1996; conditions: ref Van Asperen et al. 1996; cited from earlier work

T1 sequence (P08183 whole entry): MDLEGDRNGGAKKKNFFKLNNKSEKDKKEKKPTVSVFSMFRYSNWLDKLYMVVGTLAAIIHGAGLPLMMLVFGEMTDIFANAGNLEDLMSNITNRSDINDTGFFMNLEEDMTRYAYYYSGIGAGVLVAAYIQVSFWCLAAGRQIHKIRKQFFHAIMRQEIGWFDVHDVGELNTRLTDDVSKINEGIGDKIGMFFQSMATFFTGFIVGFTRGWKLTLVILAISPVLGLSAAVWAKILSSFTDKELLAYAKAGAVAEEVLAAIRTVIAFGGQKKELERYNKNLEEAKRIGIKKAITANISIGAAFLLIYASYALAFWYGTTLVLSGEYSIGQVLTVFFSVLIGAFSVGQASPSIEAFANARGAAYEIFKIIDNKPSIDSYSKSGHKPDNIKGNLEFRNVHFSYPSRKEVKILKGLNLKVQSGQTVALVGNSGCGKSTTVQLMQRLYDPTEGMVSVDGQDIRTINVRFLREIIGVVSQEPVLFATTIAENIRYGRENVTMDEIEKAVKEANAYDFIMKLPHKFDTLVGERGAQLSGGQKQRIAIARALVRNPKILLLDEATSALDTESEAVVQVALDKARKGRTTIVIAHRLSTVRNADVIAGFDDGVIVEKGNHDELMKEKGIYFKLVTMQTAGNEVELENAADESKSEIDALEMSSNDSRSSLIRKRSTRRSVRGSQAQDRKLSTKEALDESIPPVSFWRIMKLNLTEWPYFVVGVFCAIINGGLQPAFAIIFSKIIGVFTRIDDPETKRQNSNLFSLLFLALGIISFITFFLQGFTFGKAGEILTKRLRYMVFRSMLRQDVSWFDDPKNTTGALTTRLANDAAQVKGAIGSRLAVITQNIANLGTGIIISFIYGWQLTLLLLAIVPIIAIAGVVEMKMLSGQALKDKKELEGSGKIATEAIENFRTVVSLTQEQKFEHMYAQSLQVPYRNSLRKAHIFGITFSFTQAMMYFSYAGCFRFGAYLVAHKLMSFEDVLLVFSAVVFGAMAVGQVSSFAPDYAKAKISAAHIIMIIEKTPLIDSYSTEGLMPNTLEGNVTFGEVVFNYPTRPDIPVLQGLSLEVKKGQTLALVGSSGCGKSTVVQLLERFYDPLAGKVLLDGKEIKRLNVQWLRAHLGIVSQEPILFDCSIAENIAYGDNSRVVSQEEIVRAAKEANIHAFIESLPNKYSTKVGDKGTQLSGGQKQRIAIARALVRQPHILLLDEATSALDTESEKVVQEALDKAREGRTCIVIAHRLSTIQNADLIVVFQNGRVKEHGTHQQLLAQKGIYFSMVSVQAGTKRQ

**Q.** What does the source list for `C[C@H]1O[C@@H](O[C@H]2[C@@H](O)C[C@H](O[C@H]3[C@@H](O)C[C@H](O[C@H]4CC[C@@]5(C)[C@H](CC[C@@H]6[C@@H]5C[C@@H](O)[C@]5(C)[C@@H](C7=CC(=O)OC7)CC[C@]65O)C4)O[C@@H]3C)O[C@@H]2C)C[C@H](O)[C@@H]1O` [Digoxin]?
**A.** AP-BL transport of digoxin (P-gp [1]; Caco-2 (Table 3)): 5.18 10^−8 cm/s; BL-AP transport of digoxin (P-gp [1]; Caco-2 (Table 3)): 1.80 ×10⁻⁶ cm/s; AP-BL transport (PappA–B) of digoxin (P-gp [1]; Caco-2 monolayers): 0.0518 ×10⁻⁶ cm/s; BL-AP transport (PappB–A) of digoxin (P-gp [1]; Caco-2 monolayers): 1.8 ×10⁻⁶ cm/s; Papp A→B at 10 µM (P-gp [2]): 0.0518 ×10⁻⁶ cm/s; Papp B→A at 10 µM (P-gp [2]): 1.8 ×10⁻⁶ cm/s; Caco-2 Papp (Caco-2): 1.1 ×10⁻⁶ cm/s

**Q.** For `COc1cc2c(cc1OC)CN(CCc1ccc(NC(=O)c3cccc4c(=O)c5cccc(OC)c5[nH]c34)cc1)CC2` [Elacridar], which “Effect of pre-treatment on plasma profile of quinidine” value (P-gp [3]; mice) is on record?
**A.** no significant difference

**Q.** Which “Increase in brain concentration” value (P-gp [4]) does the source give for `CN(C)CCC[C@@]1(c2ccc(F)cc2)OCc2cc(C#N)ccc21` [Escitalopram] here?
**A.** threefold

**Q.** What does the source list for `O=c1c(O)c(-c2ccc(O)c(O)c2)oc2cc(O)cc(O)c12` [Quercetin]?
**A.** Increase in (AUC) 0–7h B/P of quinidine (P-gp [3]; mice, inhibitor pre-treatment): twofold; Effect of pre-treatment on plasma profile of quinidine (P-gp [3]; mice): no significant difference

**Q.** For `C=C[C@H]1C[N@@]2CC[C@H]1C[C@@H]2[C@@H](O)c1ccnc2ccc(OC)cc12` [Quinidine], which AUC(0-inf) (P-gp [3]; brain) is on record?
**A.** 251 ng·h/mL

**Q.** What about the AUC(0-t) (P-gp [3]; brain) of the same compound?
**A.** 211 ng·h/mL

**Q.** And the Cmax (P-gp [3]; brain)?
**A.** 115 ng/mL

**Q.** What about the Tmax (P-gp [3]; brain) of the same compound?
**A.** 48 min

**Q.** What about the AUC(0-inf) (P-gp [3]; plasma) of the same compound?
**A.** 513 ng·h/mL

**Q.** And the AUC(0-t) (P-gp [3]; plasma)?
**A.** 496 ng·h/mL

**Q.** What about the Cmax (P-gp [3]; plasma) of the same compound?
**A.** 209 ng/mL

**Q.** And the Tmax (P-gp [3]; plasma)?
**A.** 39.6 min

**Q.** With `CC[C@]1(O)C[C@@H]2CN(CCc3c([nH]c4ccccc34)[C@@](C(=O)OC)(c3cc4c(cc3OC)N(C)[C@H]3[C@@](O)(C(=O)OC)[C@H](OC(C)=O)[C@]5(CC)C=CCN6CC[C@]43[C@@H]65)C2)C1` [vinblastine] as the compound, how does the “Penetration into the brain, P-gp knockout mice compared with wild type control” value (P-gp [5]) read?
**A.** 7–46 folds
